Values quoted from earlier work, collected in patent publication US20060182816A1, “Hypobromous acid system” (priority 2005, published 2006).
Like-named read-outs stand apart in the source and are kept apart here. Each block holds one molecule with its values, some of them ahead of it.

How the values were obtained:
[1] = not given; remark: listed apart in the source

pKa: about 7.53
SMILES: OCl [HOCl, hypochlorous acid]

SMILES: OBr [Hypobromous acid]
% bromine as HOBr ([1]; pH 6.0): 100%
% bromine as HOBr ([1]; pH 6.5): 99.4%
% bromine as HOBr ([1]; pH 7.0): 98%
% bromine as HOBr ([1]; pH 7.5): 94%
% bromine as HOBr ([1]; pH 8.0): 83%
% bromine as HOBr ([1]; pH 8.5): 57%

SMILES: OBr [Hypobromite ion]
% bromine as OBr− ([1]; pH 6.0): 0.0%
% bromine as OBr− ([1]; pH 6.5): 0.6%
% bromine as OBr− ([1]; pH 7.0): 2%
% bromine as OBr− ([1]; pH 7.5): 6%
% bromine as OBr− ([1]; pH 8.0): 17%
% bromine as OBr− ([1]; pH 8.5): 43%
